Source: patent US20200172911A1, “USP30 INHIBITORS AND METHODS OF USE” (Genentech, Inc., priority 2012, published 2020)

Tests used:
Type in all cases: cell-based, human
[1] = system: HeLa cells cotransfected with GFP-Parkin; assay: mitochondrial degradation assay / DUB cDNA overexpression screen (Tom20 staining); conditions: CCCP 20 μM, 24 hours
Protocol: To identify regulators of mitophagy, individual cDNAs from a FLAG-tagged DUB library were cotransfected into HeLa cells with GFP-Parkin using Lipofectamine 2000 (Invitrogen) (1:3 DUB-FLAG: GFP-Parkin cDNA ratio). After 24 hours of expression, cells were treated with […] CCCP for 24 hours, and fixed and stained using anti-Tom20 (Santa Cruz Biotechnology), anti-GFP (Aves Labs) and anti-FLAG (Sigma) primary antibodies. Following staining with secondary antibodies, images of random fields were acquired with a Leica SP5 Laser Scanning Confocal Microscope using a 40×/1.25 oil-objective (0.34 μm/pixel resolution, 1 μm confocal z-step size). Percent of GFP-Parkin and FLAG-DUB cotransfected cells containing Tom20 staining was scored blindly.
To identify DUBs that regulate mitochondria clearance, a FLAG-tagged human DUB cDNA library (97 DUBs) was screened in an established mitochondrial degradation assay (Narendra et al., J. Cell Biol., 183: 795-803 (2008)). In this assay, mitochondria depolarization induced by protonophore carbonyl cyanide 3-chlorophenylhydrazone (CCCP, 20 μM, 24 hours) results in marked loss of mitochondria in cultured cells overexpressing Parkin (as measured by staining for mitochondria outer membrane protein marker Tom20). […] Individual FLAG-tagged DUB cDNAs were cotransfected with GFP-Parkin, and their effects on CCCP-induced mitochondrial (Tom20) clearance were measured. […]

[2] = system: GFP-Parkin stable cell lines (HEK-293); assay: immunoblot of mitochondrial protein levels during CCCP treatment; conditions: CCCP 5 μM, t=6 h, p<0.01
Protocol: For total lysate experiments, cells were lysed after 24 hours in SDS sample buffer (Invitrogen) containing sample reducing agent (Invitrogen) and boiled at 95° C. for 10 minutes. Total lysates were resolved by SDS-PAGE and analyzed by immunoblotting. For immunoprecipitation experiments, cells were treated with 5 μM MG132 and the indicated concentrations and durations of CCCP at 24 hours (overexpression experiments) or 6 days (knockdown experiments) in 0.5% SDS in Tris-Buffered Saline (10 mM TRIS, 150 mM NaCl, pH 8.0) and boiled at 70° C. for 10 minutes. […] Inputs and anti-HA immunoprecipitates were resolved by SDS-PAGE and analyzed by immunoblotting.
Beyond ubiquitination, does USP30 regulate protein turnover in addition to ubiquitination? […] In contrast to the outer membrane proteins, mitochondrial matrix protein HSP60 and inner membrane protein TIMM8A were unchanged by CCCP within this time frame. Overexpression of USP30 in GFP-Parkin stable cells greatly attenuated or abolished the CCCP-induced depletion of MIRO and Tom20 (FIG. 6G, H). Stabilization by USP30 overexpression appeared to be relatively specific for MIRO and Tom20, since CCCP-induced degradation of other mitochondria membrane proteins (MFN-1, TOM70, VDAC) was unaffected (FIG. 6G, H).

HEK-293 cells = assay: global ubiquitination (K-GG) mass spectrometry, USP30 knockdown; conditions: CCCP 5 μM, 2 hours
Protocol: (§1) To determine Parkin substrates, HEK-293 GFP-Parkin inducible cells were treated with doxycycline for 24 hours, and then treated with 5 μM CCCP or DMSO vehicle control for 2 hours. To determine USP30 substrates, HEK-293T cells were transfected with human USP30 shRNA using Lipofectamine 2000 (Invitrogen) for 6 days, then treated as before. […] Preparation of cellular lysates and immunoprecipitation
To identify Parkin substrates, HEK 293T cells stably expressing inducible GFP-Parkin (human) were induced using doxycycline (1 μg/mL) for 24 hours, then treated with 5 μM CCCP or DMSO vehicle control for 2 hours. To determine USP30 substrates, HEK 293T cells were transfected with human USP30 shRNA using Lipofectamine 2000 (Invitrogen) for 6 days, then treated as above.
Immunoaffinity isolation and mass spectrometry methods were used to enrich and identify K-GG peptides from digested protein lysates as previously described (Xu et al., Nat. Biotech., 28: 868-873 (2010); Kim et al., Mol. Cell, 44: 325-340 (2011)). Cell lysates were prepared in lysis buffer (8M urea 20 mM HEPES pH 8.0 with 1 mM sodium orthovanadate, 2.5 mM sodium pyrophosphate, 1 mM ß-glycerophosphate) by brief sonication on ice. Protein samples (60 mg) were reduced at 60° C. for 20 min in 4.1 mM DTT, cooled 10 min on ice, and alkylated with 9.1 mM iodoacetamide for 15 min at room temperature in the dark. […]

USP30 = USP30 knockdown efficiency in HEK-293 cells
Protocol: as §1
Since Parkin and USP30 antagonistically regulate mitochondrial degradation, it was hypothesized that this E3 ligase and DUB act on some common substrates. To identify Parkin and USP30 substrates, global ubiquitination in cells was analyzed by mass spectrometry (MS) following immunoaffinity enrichment of ubiquitinated peptides from trypsin-digested extracts using the ubiquitin branch-specific (K-GG) antibodies. Global ubiquitination was analyzed and quantified by MS in HEK-293 cells in two different sets of conditions: 1) inducible Parkin overexpression, or 2) USP30 knockdown (USP30 knockdown efficiency was 85±5% (see FIG. 7C)). In each set, cells were treated with CCCP (5 μM, 2 hours) or vehicle control (DMSO).

[3] = system: GFP-Parkin expressing stable HEK-293 cells; assay: HA-ubiquitin immunoprecipitation and immunoblot of MIRO and Tom20; conditions: HA-ubiquitin immunoprecipitates, CCCP 5 μM, 2 hours
Protocol: For total lysate experiments, transfected HEK-293 cells were lysed at 24 hours post-transfection in SDS sample buffer (Invitrogen) containing sample reducing agent (Invitrogen). For immunoprecipitation experiments, cells were lysed at 24 hours (overexpression experiments) or 6 days (knockdown experiments) post-transfection in TBS buffer containing 0.5% SDS, and lysates were diluted with a buffer containing 1% Triton-X-100 and protease and phosphatase inhibitors. Ubiquitinated proteins were immunoprecipated from lysates of HA-ubiquitin transfected cells with anti-HA affinity matrix beads (Roche Applied Science). Inputs and precipitates were resolved by SDS-PAGE and analyzed by immunoblotting.
For total lysate experiments, cells were lysed after 24 hours in SDS sample buffer (Invitrogen) containing sample reducing agent (Invitrogen) and boiled at 95° C. for 10 minutes. Total lysates were resolved by SDS-PAGE and analyzed by immunoblotting. For immunoprecipitation experiments, cells were treated with 5 μM MG132 and the indicated concentrations and durations of CCCP at 24 hours (overexpression experiments) or 6 days (knockdown experiments) in 0.5% SDS in Tris-Buffered Saline (10 mM TRIS, 150 mM NaCl, pH 8.0) and boiled at 70° C. for 10 minutes. […] Inputs and anti-HA immunoprecipitates were resolved by SDS-PAGE and analyzed by immunoblotting. […]

N#CC(C#N)=NNc1cccc(Cl)c1 [CCCP, carbonyl cyanide 3-chlorophenylhydrazone]
Parkin-transfected cells lacking Tom20 staining [1]: > 80%
decrease in Tom20 protein level [2]: 10+/−1%

CCAGAGTCCTGTTCGATTT ((CCAGAGTCCTGTTCGATTT; as printed in the source, key not given here) [human USP30 shRNA]
USP30 shRNA+CCCP/CCCP ubiquitination ratio for Tom20 (HEK-293 cells; p=0.005): 3.52
USP30 shRNA+CCCP/CCCP ubiquitination ratio for MIRO (HEK-293 cells; p=0.019): 2.95
USP30 knockdown efficiency (USP30): 85±5%
increase in level of ubiquitinated MIRO [3]: ~2.5 fold
